Molecules are shown by their SMILES.

The test system of assay [1] is SMN2 minigene mRNA (SMN2-A minigene construct). Nature of the assay: SMN2 minigene mRNA splicing RT-qPCR assay in cultured cells. The assay is classed as cell-based, human. The following applies: Homo sapiens, HEK293-H; HEK293H cells stably transfected with SMN2-A minigene, 24 hours, 7-point concentration data; concentration giving 1.5-fold SMN2 full length mRNA relative to vehicle-treated cells; read-out: EC1.5x for production of full length SMN2 mRNA. As for the experimental part: The reverse transcription-quantitative PCR-based (RT-qPCR) assay is used to quantify the level of the full length SMN2 minigene mRNA containing SMN2 exon 7 in a HEK293H cell line stably transfected with said minigene and treated with a test compound.
HEK293H cells stably transfected with the SMN2-A minigene construct described above (10,000 cells/well) are seeded in 200 μL of cell culture medium (DMEM plus 10% FBS, with 200 μg/mL hygromycin) in 96-well flat-bottom plates and the plate is immediately swirled to ensure proper dispersal of cells, forming an even monolayer of cells. Cells are allowed to attach for at least 4-6 hours. Test compounds are serially diluted 3.16-fold in 100% DMSO to generate a 7-point concentration curve. A solution of test compound (1 μL, 200× in DMSO) is added to each cell-containing well and the plate is incubated for 24 hours in a cell culture incubator (37° C., 5% CO2, 100% relative humidity). Two replicates are prepared for each test compound concentration. The cells are then lysed in Cells-To-Ct lysis buffer and the lysate is stored at −80° C.
Primer SMN Forward A (SEQ ID NO. 1) hybridizes to a nucleotide sequence in exon 7 (nucleotide 22 to nucleotide 40), primer SMN Reverse A (SEQ ID NO. 2) hybridizes to a nucleotide sequence in the coding sequence of Firefly luciferase, SMN Probe A (SEQ ID NO. 3) hybridizes to a nucleotide sequence in exon 7 (nucleotide 50 to nucleotide 54) and exon 8 (nucleotide 1 to nucleotide 21). The combination of these three oligonucleotides detects only SMN1 or SMN2 minigenes (RT-qPCR) and will not detect endogenous SMN1 or SMN2 genes.
The SMN forward and reverse primers are used at final concentrations of 0.4 μM. The SMN probe is used at a final concentration of 0.15 μM. The GAPDH primers are used at final concentrations of 0.2 μM and the probe at 0.15 μM.
The SMN2-minigene GAPDH mix (15 μL total volume) is prepared by combining 7.5 μL of 2×RT-PCR buffer, 0.4 μL of 25×RT-PCR enzyme mix, 0.75 μL of 20×GAPDH primer-probe mix, 4.0075 μL of water, 2 μL of 10-fold diluted cell lysate, 0.06 μL of 100 μM SMN forward primer, 0.06 μL of 100 μM SMN reverse primer, and 0.225 μL of 100 μM SMN probe.
PCR is carried out at the following temperatures for the indicated time: Step 1: 48° C. (15 min); Step 2: 95° C. (10 min); Step 3: 95° C. (15 sec); Step 4: 60° C. (1 min); then repeat Steps 3 and 4 for a total of 40 cycles.
Each reaction mixture contains both SMN2-A minigene and GAPDH primers/probe sets (multiplex design), allowing simultaneous measurement of the levels of two transcripts.
Two SMN spliced products are generated from the SMN2 minigene. The first spliced product containing exon 7, corresponding to SMN2 full length mRNA, is referred to herein using the term “SMN2 minigene FL.” The second spliced product lacking exon 7 is referred to herein using the term “SMN2 minigene Δ7.”
The increase of SMN2 minigene FL mRNA relative to that in cells treated with vehicle control is determined from real-time PCR data using a modified ΔΔCt method (as described in Livak and Schmittgen, Methods, 2001, 25:402-8). The amplification efficiency (E) is calculated from the slope of the amplification curve for SMN2 minigene FL and GAPDH individually. The abundances of SMN2 minigene FL and GAPDH are then calculated as (1+E)^−Ct, where Ct is the threshold value for each amplicon. The abundance of SMN2 minigene FL is normalized to GAPDH abundance. The normalized SMN2 minigene FL abundance from test compound-treated samples is then divided by normalized SMN2 minigene FL abundance from vehicle-treated cells to determine the level of SMN2 FL mRNA relative to vehicle control.

Another assay has as its system Smn protein. Nature of the assay: Smn protein assay (HTRF) in cultured cells (SMA patient fibroblasts GM03813). The assay is classed as cell-based, human. The following applies: 48 hours; for maximum fold (Fold) increase of Smn protein: SMA patient fibroblast cells, 7-point concentration curve, relative to vehicle control; for EC1.5x for Smn protein expression: SMA patient fibroblast cells (GM03813), HTRF, 7-point concentration data, concentration producing 1.5 times Smn protein vs DMSO vehicle control. As for the experimental part: The Smn HTRF (homogeneous time resolved fluorescence) assay is used to quantify the level of Smn protein in SMA patient fibroblast cells treated with test compounds.
Cells are thawed and cultured in DMEM-10% FBS for 72 hours. Cells are trypsinized, counted and re-suspended to a concentration of 25,000 cells/mL in DMEM-10% FBS. The cell suspension is plated at 5,000 cells per well in a 96 well microtiter plate and incubated for 3 to 5 hours. […] Test compounds are serially diluted 3.16-fold in 100% DMSO to generate a 7-point concentration curve. 1 μL of test compound solution is transferred to cell-containing wells and cells are incubated for 48 hours in a cell culture incubator (37° C., 5% CO2, 100% relative humidity). Triplicate samples are set up for each test compound concentration. After 48 hours, the supernatant is removed from the wells and 25 μL of the RIPA lysis buffer, containing protease inhibitors, is added to the wells and incubated with shaking at room temperature for 1 hour. 25 μL of the diluent is added and then 35 μL of the resulting lysate is transferred to a 384-well plate, where each well contains 5 μL of the antibody solution (1:100 dilution of anti-SMN d2 and anti-SMN kryptate in SMN reconstitution buffer). The plate is centrifuged for 1 minute to bring the solution to the bottom of the wells, then incubated overnight at room temperature. Fluorescence for each well of the plate at 665 nm and 620 nm is measured on an EnVision multilabel plate reader (Perkin-Elmer).
The normalized fluorescence signal is calculated for each sample, Blank and vehicle control well by dividing the signal at 665 nm by the signal at 620 nm. Normalizing the signal accounts for possible fluorescence quenching due to the matrix effect of the lysate. The ΔF value (a measurement of Smn protein abundance as a percent value) for each sample well is calculated by subtracting the normalized average fluorescence for the Blank control wells from the normalized fluorescence for each sample well, then dividing this difference by the normalized average fluorescence for the Blank control wells and multiplying the resulting value by 100. The ΔF value for each sample well represents the Smn protein abundance from test compound-treated samples. The ΔF value for each sample well is divided by the ΔF value for the vehicle control wells to calculate the fold increase in Smn protein abundance relative to the vehicle control.

For `CN1CCN(c2cc3oc(=O)c(-c4nc5ccccc5s4)cc3cn2)CC1` [Cpd 14, 3-(1,3-benzothiazol-2-yl)-7-(4-methylpiperazin-1-yl)-2H-pyrano[3,2-c]pyridin-2-one], in assay [1], the EC (1.5-fold) was 3 to 30 µM. The “maximum fold (Fold) increase of Smn protein” value (“maximum fold (Fold) increase” for short) in the assay on Smn protein is on record as “* (A maximum fold increase ≦1.2 is indicated by one star (*))”.

For `Cc1ccn2nc(-c3cc4ccc(N5CCNCC5)nc4oc3=O)cc2c1.Cl` [Cpd 43, 3-(5-methylpyrazolo[1,5-a]pyridin-2-yl)-7-(piperazin-1-yl)-2H-pyrano[2,3-b]pyridin-2-one hydrochloride], the EC (1.5-fold) in assay [1] lay in the range of 0.1 to 0.3 µM. In the assay with Smn protein, the “EC1.5x for Smn protein expression” value is recorded as “**** (an EC1.5×≦0.3 μM is indicated by four stars (****))”; the “maximum fold (Fold) increase” value is “**** (a fold increase between >1.5 and ≦1.65 is indicated by four stars (****))”.

Take `C[C@@H]1CN(c2ccc3cc(-c4cn5ccccc5n4)c(=O)oc3n2)CCN1.Cl` [Cpd 80, 3-(imidazo[1,2-a]pyridin-2-yl)-7-[(3R)-3-methylpiperazin-1-yl]-2H-pyrano[2,3-b]pyridin-2-one hydrochloride]: the EC (1.5-fold) in assay [1] is not above 0.1 µM. In addition, in the assay on Smn protein, the “EC1.5x for Smn protein expression” value was “**** (an EC1.5×≦0.3 μM is indicated by four stars (****))”; the “maximum fold (Fold) increase” value was “**** (a fold increase between >1.5 and ≦1.65 is indicated by four stars (****))”.

As to `Cc1ccc2nc(-c3cc4ccc(N5C[C@H](C)N(C)C[C@H]5C)nc4oc3=O)cn2c1` [Cpd 93, 3-(6-methylimidazo[1,2-a]pyridin-2-yl)-7-[(2R,5S)-2,4,5-trimethylpiperazin-1-yl]-2H-pyrano[2,3-b]pyridin-2-one], the EC (1.5-fold) in assay [1] fell in the range of 0.3 to 1 µM. For the same compound, the “maximum fold (Fold) increase” value with Smn protein is “*** (a fold increase between >1.35 and ≦1.5 is indicated by three stars (***))”.

`Cc1ccc2nc(-c3cc4ccc(N5C[C@@H]6C[C@H]5CN6)nc4oc3=O)cn2c1` [Cpd 124, 7-[(1S,4S)-2,5-diazabicyclo[2.2.1]hept-2-yl]-3-(6-methylimidazo[1,2-a]pyridin-2-yl)-2H-pyrano[2,3-b]pyridin-2-one]: the EC (1.5-fold) in assay [1] was in the range of 0.1 to 0.3 µM. In the assay on Smn protein, the “EC1.5x for Smn protein expression” value was “*** (an EC1.5× between >0.3 μM and ≦1 μM is indicated by three stars (***))”; the “maximum fold (Fold) increase” value is “**** (a fold increase between >1.5 and ≦1.65 is indicated by four stars (****))”.

On to `Cc1cn2cc(-c3cc4ccc(N5C[C@H](C)NC[C@H]5C)nc4oc3=O)nc2cn1` [Cpd 102, 7-[(2R,5S)-2,5-dimethylpiperazin-1-yl]-3-(6-methylimidazo[1,2-a]pyrazin-2-yl)-2H-pyrano[2,3-b]pyridin-2-one], for which the EC (1.5-fold) in assay [1] was not above 0.1 µM. Further, in the assay with Smn protein, the “EC1.5x for Smn protein expression” value is “**** (an EC1.5×≦0.3 μM is indicated by four stars (****))” and the “maximum fold (Fold) increase” value is “***** (a fold increase >1.65 is indicated by five stars (*****))”.

In the case of `Cc1ccc2nc(-c3cc4ccc(N5CCN[C@H](C)C5)nc4oc3=O)cn2c1` [Cpd 73, 3-(6-methylimidazo[1,2-a]pyridin-2-yl)-7-[(3R)-3-methylpiperazin-1-yl]-2H-pyrano[2,3-b]pyridin-2-one], the EC (1.5-fold) in assay [1] was in the range of 0.1 to 0.3 µM. In the assay on Smn protein, the “EC1.5x for Smn protein expression” value is “** (an EC1.5× between >1 and ≦3 μM is indicated by two stars (**))”; the “maximum fold (Fold) increase” value was “*** (a fold increase between >1.35 and ≦1.5 is indicated by three stars (***))”.

For `Cc1ccn2cc(-c3cc4ccc(N5C[C@H](C)NC[C@H]5C)nc4oc3=O)nc2c1` [Cpd 88, 7-[(2R,5S)-2,5-dimethylpiperazin-1-yl]-3-(7-methylimidazo[1,2-a]pyridin-2-yl)-2H-pyrano[2,3-b]pyridin-2-one], the EC (1.5-fold) in assay [1] was not above 0.1 µM. Besides, in the assay on Smn protein, the “EC1.5x for Smn protein expression” value was “**** (an EC1.5×≦0.3 μM is indicated by four stars (****))”; the “maximum fold (Fold) increase” value was “**** (a fold increase between >1.5 and ≦1.65 is indicated by four stars (****))”.

As for `C[C@H]1CN(c2ccc3cc(-c4cn5ccsc5n4)c(=O)oc3n2)CCN1.Cl` [Cpd 83, 3-(imidazo[2,1-b][1,3]thiazol-6-yl)-7-[(3S)-3-methylpiperazin-1-yl]-2H-pyrano[2,3-b]pyridin-2-one hydrochloride], the EC (1.5-fold) in assay [1] is not above 0.1 µM. Besides, in the assay on Smn protein, the “EC1.5x for Smn protein expression” value was “**** (an EC1.5×≦0.3 μM is indicated by four stars (****))”; the “maximum fold (Fold) increase” value was “**** (a fold increase between >1.5 and ≦1.65 is indicated by four stars (****))”.

Take `Cc1cn2cc(-c3cc4ccc(N5CCN[C@@H](C)C5)nc4oc3=O)nc2c(C)n1` [Cpd 146, 3-(6,8-dimethylimidazo[1,2-a]pyrazin-2-yl)-7-[(3S)-3-methylpiperazin-1-yl]-2H-pyrano[2,3-b]pyridin-2-one]: the EC (1.5-fold) in assay [1] is not above 0.1 µM. Further, in the assay with Smn protein, the “EC1.5x for Smn protein expression” value was “**** (an EC1.5×≦0.3 μM is indicated by four stars (****))”; the “maximum fold (Fold) increase” value was “**** (a fold increase between >1.5 and ≦1.65 is indicated by four stars (****))”.

Turning to `Cc1ccn2cc(-c3cc4cnc(N5CCNCC5)cc4oc3=O)nc2c1.Cl` [Cpd 40, 3-(7-methylimidazo[1,2-a]pyridin-2-yl)-7-(piperazin-1-yl)-2H-pyrano[3,2-c]pyridin-2-one hydrochloride], the EC (1.5-fold) in assay [1] was in the range of 0.3 to 1 µM. The “maximum fold (Fold) increase” value with Smn protein was “** (a fold increase between >1.2 and ≦1.35 is indicated by two stars (**))”.

`Cl.O=c1oc2nc(N3CCNCC3)ccc2cc1-c1cn2ccccc2n1` [Cpd 28, 3-(imidazo[1,2-a]pyridin-2-yl)-7-(piperazin-1-yl)-2H-pyrano[2,3-b]pyridin-2-one hydrochloride]: in assay [1], the EC (1.5-fold) was in the range of 0.1 to 0.3 µM. For the same compound, in the assay with Smn protein, the “maximum fold (Fold) increase” value is “*** (a fold increase between >1.35 and ≦1.5 is indicated by three stars (***))”.

Source of the values: patent US9371336B2, “Compounds for treating spinal muscular atrophy” (PTC Therapeutics Inc., priority 2012, dated 2016).
